Results on 5 compounds are retold here after article PMC6152105, “NMR Insights into the Structure-Function Relationships in the Binding of Melanocortin Analogues to the MC1R Receptor” (Molecules : A Journal of Synthetic Chemistry and Natural …, 2017).

For experiment [1], the target named is T1, MC1R (Mus musculus, UniProt Q01727).
T1 construct: endogenous in cells; host or cells: murine melanoma B16F1 cells
Put plainly: Competitive binding assay with [125I]-NDP-α-MSH in B16F1 melanoma cells. The settings on record: [125I]-[Nle4,DPhe7]-α-MSH radioligand, murine melanoma B16F1 cells, in triplicate, GraphPad Prism fit, read-out: MC1R binding affinity (IC50). The protocol:
The binding affinities of the peptides CycN-K6 and CycN-K7 to MC1R were tested in a competitive binding assay using [^125I]-[Nle^4,DPhe^7]-α-MSH ([^125I]-NDP-α-MSH) as radioligand and murine melanoma B16F1 cells (Figure S1, Supplementary Materials), as previously described for other α-MSH analogues. Table 1 lists the IC50 values obtained for those two peptides, and for the 19-membered macrocyclic peptides PG10N and CycS-C6 [19, 20]. […] Therefore, a detailed structural comparison of these three peptides is required to understand the molecular basis for their binding to receptor MC1R.
NDP-α-MSH was radioiodinated as described. To determine the inhibitory concentration of 50 % (IC50) values for the α-MSH analogues, competitive binding assays with [^125I]NDP-α-MSH in B16F1 melanoma cells were carried out in triplicate following the previously described procedure. IC50 values were calculated from the plots of the percentage of [^125I]NDP-α-MSH bound to the cells vs. the concentrations of displacing peptides by using GraphPad Prism software (GraphPad Software Inc., La Jolla, CA, USA).

For experiment [2], the target named is T1, MC1R. The settings on record: ref [20], cited from earlier work. An excerpt:
Table 1 Sequences, cycle size and MC1R binding affinities (IC50) of cyclic α-MSH analogues. | column: IC50 (nM) || Linear and cyclic analogues of the α-melanocyte stimulating hormone (α-MSH) targeting the human melanocortin receptor 1 (MC1R) are of pharmacological interest for detecting and treating melanoma. The central sequence of α-MSH (His-Phe-Arg-Trp) has been identified as being essential for receptor binding. To deepen current knowledge on the molecular basis for α-MSH bioactivity, we aimed to understand the effect of cycle size on receptor binding. To that end, we synthesised two macrocyclic isomeric α-MSH analogues, c[NH-NO2-C6H3-CO-His-DPhe-Arg-Trp-Lys]-Lys-NH2 (CycN-K6) and c[NH-NO2-C6H3-CO-His- ... || Aimed at enhancing the biological stability, potency and specificity of the endogenous ligand, a library of α-MSH analogues has been designed for imaging and therapeutic applications. […] However, replacement of the alkylthioaryl-bridge (Cy ... || (+ 1 further places)

Experiment [3] has as its system MC1R. The settings on record: 19-membered parent peptide; ref [19]; read-out: MC1R binding affinity (IC50); cited from earlier work. From the text:
Table 1 Sequences, cycle size and MC1R binding affinities (IC50) of cyclic α-MSH analogues. | column: IC50 (nM)

For another experiment, the system named is all human MCRs. The settings on record: ref [19]; cited from earlier work. From the text:
Aimed at enhancing the biological stability, potency and specificity of the endogenous ligand, a library of α-MSH analogues has been designed for imaging and therapeutic applications. […] However, replacement of the alkylthioaryl-bridge (Cy ...

“Also recorded” adds a separate entry of the source. Where two headings read alike, the source gives them in different places. Numbered stars: 1 amine (or outer) side, 2 acyl side, 3 side chain; on linkers, the order of the positions; unused ones are H or OH. Bridge positions count the residues as written; N and C are the ends. Square brackets hold non-standard residues; d marks the D form. Peptide text beside a SMILES is read from it. nitrobenzoyl (NO2-C6H3-CO) = nitrobenzoyl unit acylating the N-terminal His, with its aryl carbon thioether-bonded to the Cys side-chain S; X1 = O=C(c1cc([N+](=O)[O-])ccc1[*:2])[*:1]

T1 sequence (Q01727 whole entry): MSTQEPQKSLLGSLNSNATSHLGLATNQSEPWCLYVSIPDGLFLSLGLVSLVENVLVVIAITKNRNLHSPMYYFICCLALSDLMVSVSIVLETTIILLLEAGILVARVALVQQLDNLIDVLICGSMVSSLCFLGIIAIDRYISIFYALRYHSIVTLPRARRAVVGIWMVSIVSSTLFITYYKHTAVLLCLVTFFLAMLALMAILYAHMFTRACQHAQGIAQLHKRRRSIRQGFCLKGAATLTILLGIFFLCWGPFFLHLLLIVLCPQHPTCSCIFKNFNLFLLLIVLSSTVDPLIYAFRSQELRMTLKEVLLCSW

As to `N=C(N)NCCC[C@@H]1NC(=O)[C@@H](Cc2ccccc2)NC(=O)[C@H](Cc2c[nH]cn2)NC(=O)c2cc([N+](=O)[O-])ccc2NCCCC[C@@H](C(=O)N[C@@H](CCCCN)C(N)=O)NC(=O)[C@H](Cc2c[nH]c3ccccc23)NC1=O` [CycN-K6, c[NH–NO2–C6H3–CO–His–DPhe–Arg–Trp–Lys]–Lys–NH2] (H[dF]RWKK-NH2; linker N-5 via X1), on MC1R [1], the IC50 (in general, the concentration that inhibits the measured activity by half) was 0.155 ± 0.016 µM.

Take `N=C(N)NCCC[C@@H]1NC(=O)[C@@H](Cc2ccccc2)NC(=O)[C@H](Cc2c[nH]cn2)NC(=O)c2cc([N+](=O)[O-])ccc2NCCCC[C@@H](C(N)=O)NC(=O)[C@H](CCCCN)NC(=O)[C@H](Cc2c[nH]c3ccccc23)NC1=O` [CycN-K7, c[NH–NO2–C6H3–CO–His–DPhe–Arg–Trp–Lys–Lys]–NH2] (H[dF]RWKK-NH2; linker N-6 via X1): the IC50 at MC1R [1] amounted to 0.495 ± 0.101 µM.

Take “c[S–NO2–C6H3–CO–His–DPhe–Arg–Trp–Cys]–Lys–NH2 (sidechain bridge or staple) ({nitrobenzoyl (NO2-C6H3-CO)}-H[dF]RWCK-NH2; thioether N-5) [CycS-C6, 19-membered cyclic analogue, previously reported by the authors]”: the 50% inhibitory concentration (IC50) with MC1R [2] (previously reported by the authors, competitive binding, [125I]-NDP-α-MSH, B16F1 cells, read-out: MC1R binding affinity (IC50)) is 1.77 ± 0.48 µM.

As to “c[S–NO2–C6H3–CO–His–DPhe–Arg–Trp–Cys]–Lys–NH2 (sidechain bridge or staple) [CycS-C6, 19-membered cyclic analogue, previously reported by the authors]”, at MC1R [2] (relative to parent PG10N, addition of C-terminal Lys), the “MC1R binding in words” value was “strongly decreases affinity to MC1R; also recorded: impaired binding”.

With “c[S–NO2–C6H3–CO–His–DPhe–Arg–Trp–Cys]–NH2 (sidechain bridge or staple) [PG10N, 19-membered alkylthioaryl-bridged macrocyclic α-MSH analogue]”, the IC50 with MC1R [3] was 0.0037 ± 0.0005 µM. Besides, the agonist activity result in the experiment on all human MCRs was “potent full agonist for all human MCRs”.
